Series [1] relates to human prostate cancer cell-line DU-145. Description: In vitro cytotoxicity against prostate cancer cell line. It counts as cell-based. To be noted: DU-145 cells, DOX equivalent. The source says:
The in vitro cytotoxicity of HPMA-HA-DOX with 17% and 36% HA loading against cultured prostate cancer cell line DU-145 was examined. FIG. 8 depicts the in vitro cytotoxicity results of the HPMA-HA-DOX bioconjugates. The cytotoxicity of targeted HPMA-HA-DOX bioconjugates were dramatically higher than non-targeted HPMA-DOX conjugate (Table 2), and 8- to 12-fold higher than the free DOX drug against this prostate cancer cell-line.

The test system of series [2] is HCT-116 human colon cancer cells. Description: In vitro cytotoxicity, MTT dye uptake. It is filed as cell-based. The conditions noted are these: 72 h, HCT-116 cells, 3 days incubation, DOX equivalent. The protocol: (§1) HBL-100, a human breast cancer cell-line, was maintained in culture in high glucose D-MEM (Dulbecco's Modified Eagle Medium), which was supplemented with 10% γ-irradiated fetal bovine serum (FBS) and 1% sodium pyruvate; SK-OV-3, a human ovarian cancer cell-line was cultured in D-MEM/F12+10% FBS; HCT-116, a colon tumor cell-line, was maintained in culture in α-MEM (Minimal Essential Medium, Eagle)+10% FBS. 4T1 mouse breast cancer cells and TSU human bladder cancer cells were cultured with 10% calf serum-90% Dulbecco's modified Eagle's medium (DMEM) at 37° C. in 5% CO2 incubator.
(§2) All ^1H NMR spectral data were obtained using an NR-200 FT-NMR spectrometer at 200 MHz (IBM Instruments Inc.). UV-Vis spectra were recorded on a Hewlett Packard 8453 UV-Vis diode array spectrophotometer (Palo Alto, Calif.). HA was characterized by gel permeation chromatography (GPC) was on the following system: Waters 515 HPLC pump, Waters 410 differential refractometer, and Waters™ 486 tunable absorbance detector, Waters Ultrahydrogel 250 and 2000 columns (7.8 mm ID×30 cm) (Milford, Mass.) were used for GPC analysis, the eluent was 150 mM pH 6.5 phosphate buffer/MeOH=80:20 (v/v), and the flow rate was 0.5 in L/min. The system was calibrated with HA standards supplied by Dr. O. Wik (Pharmacia). […] Cell viability in cell culture was determined by thiazoyl blue (MTT) dye uptake protocols measured at 540 nm, which was recorded on a BIO-RAD M-450 microplate reader (Hercules, Calif.). […] Fluorescence images were taken using FITC settings with the 488 nm excitation line and a 522 nm 32 bandpass filter was used to collect the images.
(§3) The cytotoxicity of HA-DOX and HPMA-HA-DOX conjugates against HBL-100, SKOV-3 and HCT-116 cells was determined using a 96-well plate format in quadruplicate with increasing doses range from 0.001-10 mg/mL of DOX equivalent. […] Thus, a 2-μL aliquot of the stock solution was added to each well, and cells were continuously incubated at 37° C., 5% CO2 for 3 days with the test substance, and cell viability was determined using MTT dye uptake at 540 nm. […]

The test system of series [3] is SK-OV-3 human ovarian cancer cells. The series is described as follows: In vitro cytotoxicity, MTT dye uptake. It counts as cell-based. To be noted: 72 h, SK-OV-3 cells, 3 days incubation, DOX equivalent. On the procedure: as §1, §2, §3
Series [4] has as its system HBL-100 human breast cancer cells. The series is described as follows: In vitro cytotoxicity, MTT dye uptake. It is filed as cell-based. To be noted: 72 h, HBL-100 cells, 3 days incubation, DOX equivalent. The protocol:
as §1, §2, §3

A further series relates to 4T1 breast cancer cells. The series is described as follows: Spontaneous lymph node metastasis of 4T1 cells injected into foot pad. It is filed as in vivo, mouse. To be noted: for Weight of lymph node: s.c. three times a week for three weeks, 4 mg/kg Taxol equivalent. On the procedure: The 4T1 breast cancer cells were injected into foot pat of syngenic BABL/c mice. […] About 0.2 ml of above agents were administrated by subcutaneous (s.c.) injection at the middle of leg three times a week, from where HA-drug could be drained/absorbed into popliteal and inguinal lymph path, in which the spontaneous metastases were expected to take place.
The lymph nodes were carefully dissected out from surrounding fat, measured for the weights and processed for pathology.

The subject of series [5] is 4T1 mouse breast cancer cells. Description: In vivo anti-tumor effect, 4T1 tumor model in BABL/c mice. The conditions noted are these: 4 mg/kg Taxol or equivalent, i.p. every other day; versus vehicle and Taxol alone.
Method: The 4T1 mouse breast cancer cells (10^6/site) were subcutaneously injected into either BABL/c mice and allowed to grow for 2 days for the tumor to be established. […] The injection was carried out every other day for two to four weeks. The tumor sizes were measured twice a week. At the end of experiment, the mice were sacrificed and the tumor were harvested, photographed and weighted.
A further series deals with 4T1 tumors. The series is described as follows: Chondroitin sulfate blocking study, survival of mice bearing 4T1 tumors. It counts as in vivo, mouse. The conditions noted are these: experiment period of 33 days; ten i.p. injections every other day. On the procedure:
This procedure was carried out every other day for 20 days, and mice received a total of ten injections. The mice were recorded for their survival days and the survival rate was calculated.
This procedure was carried out every other day for 20 days, and mice received a total of ten injections. The mice were recorded for their survival during a 33 day experimental period s and the survival rate was calculated.

A further series has as its system TSU cells. The series is described as follows: HA degradation assay. It is filed as cell-based, human. The conditions noted are these: 48 hours, KM201 200 μg/ml or chloroquine 0.1 mM. The protocol: (§4) The assay was carried out as described (CBU) with some modification. […] In some wells, the media contained 200 μg/ml of KM201 (a neutralization antibody against CD44) or 0.1 mM of chloroquine (an inhibitor of lysosomal enzymes). The media were collected, which contained some of the released and degraded ^3H-HA. […] The media and the supernatant from cells were centrifuged with Centricon 30 (Amicon, Danvers, Mass.). The un-degraded high MW ^3H-HA was retained in the upper chamber.
(§5) This mixture was then separated by filter membrane with MW cut of 30,000 Dalton.

For another series, the system named is 4T1 cells. Description: HA degradation assay. It counts as cell-based, mouse. On the procedure: as §4, §5
CD44 was examined to determine if it was expressed by 4T1 cells and if it could interact with HA. First, CD44 was detected by Western blotting. […] The binding was specific as it could be inhibited by excess of cold HA (FIG. 14B).

The subject of series [6] is HA binding sites in the major organs. The series is described as follows: Chondroitin sulfate pretreatment, organ and tumor up-take of 3H-HA. It is filed as in vivo, mouse. The protocol: The tumors and organs were collected, weighted, and homogenized with ultrasound to make tissue homogenates. The protein concentration was normalized to 0.1 mg/ml. Then, 300 μl of tissue homogenates were mixed with 2.5 ml of scintillation solution and counted for the radioactivity. […] Twenty-four hours later, the mice were sacrificed and the homogenates of tumors and organs were counted for the radioactivity.
This approach did reduce the HA taken up by liver and increased the amount of HA accumulated in tumors.
One day later, the tumors and organs were collected, weighed, homogenized with ultrasound to make tissue lysate at a protein concentration of 0.1 mg/ml. Then, 300 μl of tissue lysate were mixed with 2.5 ml of scintillation solution and counted for the radioactivity.

Consider `COc1cccc2c1C(=O)c1c(O)c3c(c(O)c1C2=O)C[C@@](O)(C(=O)CO)C[C@@H]3O[C@H]1C[C@H](N)[C@H](O)[C@H](C)O1` [DOX, Doxorubicin], for which the IC50 in [1] came out at 31.5 µM; in series [2], 0.35 µM; in [3], 0.92 µM; in series [4], 0.15 µM.
Consider `CC(=O)O[C@H]1C(=O)[C@@]2(C)[C@H]([C@H](OC(=O)c3ccccc3)[C@]3(O)C[C@H](OC(=O)[C@H](O)[C@@H](NC(=O)c4ccccc4)c4ccccc4)C(C)=C1C3(C)C)[C@]1(OC(C)=O)CO[C@@H]1C[C@@H]2O` [Taxol], for which the “Inhibition ratio (%)” value is 31.8% in the series on 4T1 breast cancer cells (inguinal lymph node metastasis) and −1.7% with 4T1 breast cancer cells (popliteal lymph node metastasis). In addition, the “Weight of lymph node” value with 4T1 breast cancer cells (inguinal lymph node) came out at 9.00 ± 0.79; in the series on 4T1 breast cancer cells (popliteal lymph node), 46.70 ± 5.05. Besides, the “size of 4T1 tumors” value in [5] is “did not reduce the size”. The compound also returned a survival rate in the series on 4T1 tumors of 60%.
`CCN(CC)CCCC(C)Nc1ccnc2cc(Cl)ccc12` (stereo not shown) [chloroquine]: the “degradation of high MW 3H-HA by cells” value in the series with TSU cells is listed as “reduce the degraded ^3H-HA”; in the series with 4T1 cells (48 hours, KM201 200 μg/ml or chloroquine 0.1 mM) it was “reduce the degraded ^3H-HA”. The “CD44 mediated degradation of 3H-HA” value in the series with 4T1 cells (72 hours) is “inhibited”.
For the compound chondroitin sulfate, in series [6] (chondroitin sulfate i.v. two hours before 3H-HA, 24 hours), the “up-take of HA in the major organs” value is “reduced their up-take of HA”. Also, the “3H-HA in tumors versus untreated mice” value in series [6] (chondroitin sulfate pretreatment) is reported as “higher”. Also, in [6] (liver monitored for two days), the “amount of 3H-HA in the liver versus vehicle alone” value is reported as “much lower”.

Values taken from patent US20050169883A1, “Preblocking with non-ha gags increases effectiveness of ha conjugated anticancer agents” (priority 2002, published 2005).
